The text below walks through data of PMC6934184, “Selective DNA-PKcs inhibition extends the therapeutic index of localized radiotherapy and chemotherapy” (The Journal of Clinical Investigation, 2019).

Molecules are shown by their SMILES.

In the assay the target is T1, GRK7 (Homo sapiens, UniProt Q8WTQ7).
T1 construct: purchased Thermo Fisher Scientific (Life Technologies) SelectScreen
Put plainly: SelectScreen Z'LYTE. The class given is biochemical. The method in brief: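 Compound tested in SelectScreen activity assays, Z'LYTE for CSF1R, CDK1/cyclin B and MAP2K6 and Adapta for CAMK1. ATP for CAMK1 was listed as 10, and Km app was used for CSF1R. Results are expressed in percent.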

T1 sequence (Q8WTQ7 whole entry): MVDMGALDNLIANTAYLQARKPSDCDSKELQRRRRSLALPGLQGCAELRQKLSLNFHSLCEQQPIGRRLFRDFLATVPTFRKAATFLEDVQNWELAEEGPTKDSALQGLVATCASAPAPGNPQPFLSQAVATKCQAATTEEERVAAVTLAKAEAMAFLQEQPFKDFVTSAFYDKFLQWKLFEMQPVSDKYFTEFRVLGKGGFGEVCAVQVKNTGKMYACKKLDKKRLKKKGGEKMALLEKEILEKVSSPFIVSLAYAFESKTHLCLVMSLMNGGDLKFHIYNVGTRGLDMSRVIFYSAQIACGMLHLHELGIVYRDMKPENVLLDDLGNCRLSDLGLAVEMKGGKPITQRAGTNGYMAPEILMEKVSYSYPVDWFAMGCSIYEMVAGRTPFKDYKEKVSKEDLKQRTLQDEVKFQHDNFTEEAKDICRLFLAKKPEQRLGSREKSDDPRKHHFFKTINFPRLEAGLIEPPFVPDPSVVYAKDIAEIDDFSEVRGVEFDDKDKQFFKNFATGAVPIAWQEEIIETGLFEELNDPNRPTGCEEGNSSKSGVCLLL

Consider `CN(C(=O)CN1CCOCC1)c1ccc2sc3c(-c4cccc5c(=O)cc(N6CC7CCC(C6)O7)oc45)cccc3c2c1` [NU5455], for which the inhibition (as a rule, the relative decrease from the control value, in per cent) at 1 µM is -3%.
